Target: T1, His6-TEV-PPARγ-(234-505) (Homo sapiens, UniProt P37231)
T1 construct: The His6-TEV-PPARγ-(234-505) protein for assay was expressed and purified; TEV cleavage site (N); made in house
T1 sequence (P37231 234-505): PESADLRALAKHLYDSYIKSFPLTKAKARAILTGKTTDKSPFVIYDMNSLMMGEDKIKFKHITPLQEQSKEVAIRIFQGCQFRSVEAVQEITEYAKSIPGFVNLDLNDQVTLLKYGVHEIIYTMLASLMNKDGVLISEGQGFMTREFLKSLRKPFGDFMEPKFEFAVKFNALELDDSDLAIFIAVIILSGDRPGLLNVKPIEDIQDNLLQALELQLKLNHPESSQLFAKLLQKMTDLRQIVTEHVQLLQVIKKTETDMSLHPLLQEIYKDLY
Assay: TR-FRET Assay to Measure Co-R Peptide Recruitment to PPARγ
Type: biochemical
Conditions: Co-R peptide recruitment to PPARγ; read-out: TR-FRET AC50
Procedure, shortened: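 His-tagged PPARγ (or controls) was preincubated with compound for 20 minutes at room temperature, then 5 nM anti-His terbium antibody and 200 nM FITC-labeled SMRT-ID2 corepressor peptide (final) were added for a further hour. TR-FRET signal was normalized to percent response using 500 nM T0070907 and DMSO controls.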

Row | SMILES | AC50 [nM]
1 | COc1cc(-c2cc(C(=O)N3CCC(C(=O)NCC4CCCOC4)CC3)n[nH]2)c(Cl)cn1 (stereo not drawn) [1-[5-(5-chloro-2-methoxypyridin-4-yl)-1H-pyrazole-3-carbonyl]-N-[(oxan-3-yl)methyl]piperidine-4-carboxamide] | > 1000
2 | COc1cc(-c2cc(C(=O)N3CCC(C(=O)NCC4CCCO4)CC3)n[nH]2)c(Cl)cn1 (stereo not drawn) [1-[5-(5-chloro-2-methoxypyridin-4-yl)-1H-pyrazole-3-carbonyl]-N-[(oxolan-2-yl)methyl]piperidine-4-carboxamide] | > 1000
3 | COc1cc(-c2cc(C(=O)N3CCC(C(=O)NCc4cnccn4)CC3)n[nH]2)c(Cl)cn1 [1-[5-(5-chloro-2-methoxypyridin-4-yl)-1H-pyrazole-3-carbonyl]-N-[(pyrazin-2-yl)methyl]piperidine-4-carboxamide] | > 1000
4 | COc1cc(-c2cc(C(=O)N3CCC(C(=O)NCc4cccnn4)CC3)n[nH]2)c(Cl)cn1 [1-[5-(5-chloro-2-methoxypyridin-4-yl)-1H-pyrazole-3-carbonyl]-N-[(pyridazin-3-yl)methyl]piperidine-4-carboxamide] | > 1000
5 | COc1cc(-c2cc(C(=O)N3CCC(C(=O)NCc4ncccn4)CC3)n[nH]2)c(Cl)cn1 [1-[5-(5-chloro-2-methoxypyridin-4-yl)-1H-pyrazole-3-carbonyl]-N-[(pyrimidin-2-yl)methyl]piperidine-4-carboxamide] | > 1000
6 | COc1cc(-c2cc(C(=O)N3CCC(C(=O)NCc4ccncn4)CC3)n[nH]2)c(Cl)cn1 [1-[5-(5-chloro-2-methoxypyridin-4-yl)-1H-pyrazole-3-carbonyl]-N-[(pyrimidin-4-yl)methyl]piperidine-4-carboxamide] | > 1000
7 | COc1cc(-c2cc(C(=O)N3CCC(C(=O)NC4CC4)CC3)n[nH]2)c(Cl)cn1 [1-[5-(5-chloro-2-methoxypyridin-4-yl)-1H-pyrazole-3-carbonyl]-N-cyclopropylpiperidine-4-carboxamide] | > 1000
8 | COc1cc(-c2cc(C(=O)N3CCC(C(=O)N(C)C4CCC(C)CC4)CC3)n[nH]2)c(Cl)cn1 (stereo not drawn) [1-[5-(5-chloro-2-methoxypyridin-4-yl)-1H-pyrazole-3-carbonyl]-N-methyl-N-(4-methylcyclohexyl)piperidine-4-carboxamide] | > 1000
9 | COc1cc(-c2cc(C(=O)N3CCC(C(=O)NC45CCC(C)(C4)OC5)CC3)n[nH]2)c(Cl)cn1 (stereo not drawn) [1-[5-(5-chloro-2-methoxypyridin-4-yl)-1H-pyrazole-3-carbonyl]-N-{1-methyl-2-oxabicyclo[2.2.1]heptan-4-yl}piperidine-4-carboxamide] | > 1000
10 | COc1cc(-c2cc(C(=O)N3CCC(C(=O)NC45COC(C4)C5)CC3)n[nH]2)c(Cl)cn1 [1-[5-(5-chloro-2-methoxypyridin-4-yl)-1H-pyrazole-3-carbonyl]-N-{2-oxabicyclo[2.1.1]hexan-4-yl}piperidine-4-carboxamide] | > 1000
11 | COc1cc(-c2cc(C(=O)N3CCC(C(=O)NC45CC(F)(C4)C5)CC3)n[nH]2)c(Cl)cn1 [1-[5-(5-chloro-2-methoxypyridin-4-yl)-1H-pyrazole-3-carbonyl]-N-{3-fluorobicyclo[1.1.1]pentan-1-yl}piperidine-4-carboxamide] | > 1000
12 | COc1cc(-c2cc(C(=O)N3CCC(C(=O)NC45CCC(O)(CC4)CC5)CC3)n[nH]2)c(Cl)cn1 [1-[5-(5-chloro-2-methoxypyridin-4-yl)-1H-pyrazole-3-carbonyl]-N-{4-hydroxybicyclo[2.2.2]octan-1-yl}piperidine-4-carboxamide] | > 1000
13 | COc1cc(-c2cc(C(=O)N3CCC(C(=O)NCC4(N(C)C)CCCC4)CC3)n[nH]2)c(Cl)cn1 [1-[5-(5-chloro-2-methoxypyridin-4-yl)-1H-pyrazole-3-carbonyl]-N-{[1-(dimethylamino)cyclopentyl]methyl}piperidine-4-carboxamide] | > 1000
14 | COc1cc(-c2cc(C(=O)N3CCC(C(=O)NCc4ccccc4C(F)(F)F)CC3)n[nH]2)c(Cl)cn1 [1-[5-(5-chloro-2-methoxypyridin-4-yl)-1H-pyrazole-3-carbonyl]-N-{[2-(trifluoromethyl)phenyl]methyl}piperidine-4-carboxamide] | > 1000
15 | COc1cc(-c2cc(C(=O)N3CCC(C(=O)NCc4cc(F)cc(C(F)(F)F)c4)CC3)n[nH]2)c(Cl)cn1 [1-[5-(5-chloro-2-methoxypyridin-4-yl)-1H-pyrazole-3-carbonyl]-N-{[3-fluoro-5-(trifluoromethyl)phenyl]methyl}piperidine-4-carboxamide] | > 1000
16 | COc1cc(-c2cc(C(=O)N3CCC(C(=O)NCc4ncc(C(F)F)cn4)CC3)n[nH]2)c(Cl)cn1 [1-[5-(5-chloro-2-methoxypyridin-4-yl)-1H-pyrazole-3-carbonyl]-N-{[5-(difluoromethyl)pyrimidin-2-yl]methyl}piperidine-4-carboxamide] | > 1000
17 | COc1cc(-c2cc(C(=O)N3CCC(C(=O)NCc4nnc5ccc(C(F)(F)F)cn45)CC3)n[nH]2)c(Cl)cn1 [1-[5-(5-chloro-2-methoxypyridin-4-yl)-1H-pyrazole-3-carbonyl]-N-{[6-(trifluoromethyl)-[1,2,4]triazolo[4,3-a]pyridin-3-yl]methyl}piperidine-4-carboxamide] | > 1000

Row | SMILES | AC50 [nM]
18 | COc1cc(-c2cc(C(=O)N3CCC(C(=O)Nc4cnc5ccccn45)CC3)n[nH]2)c(Cl)cn1 [1-[5-(5-chloro-2-methoxypyridin-4-yl)-1H-pyrazole-3-carbonyl]-N-{imidazo[1,2-a]pyridin-3-yl}piperidine-4-carboxamide] | > 1000
19 | COc1cc(-c2cc(C(=O)N3CCC(C(=O)O)CC3)n[nH]2)c(Cl)cn1 [1-[5-(5-chloro-2-methoxypyridin-4-yl)-1H-pyrazole-3-carbonyl]piperidine-4-carboxylic acid] | > 1000
20 | COc1cc(-c2cc(C(=O)N3CCC(C(=O)NC4(c5ccccc5)CC4)CC3)n[nH]2)c(F)cn1 [1-[5-(5-fluoro-2-methoxypyridin-4-yl)-1H-pyrazole-3-carbonyl]-N-(1-phenylcyclopropyl)piperidine-4-carboxamide] | > 1000
21 | COc1cc(-c2cc(C(=O)N3CCC(C(=O)NC4COC(C)OC4)CC3)n[nH]2)c(F)cn1 (stereo not drawn) [1-[5-(5-fluoro-2-methoxypyridin-4-yl)-1H-pyrazole-3-carbonyl]-N-(2-methyl-1,3-dioxan-5-yl)piperidine-4-carboxamide] | > 1000
22 | COc1cc(-c2cc(C(=O)N3CCC(C(=O)NC4CCCCO4)CC3)n[nH]2)c(F)cn1 (stereo not drawn) [1-[5-(5-fluoro-2-methoxypyridin-4-yl)-1H-pyrazole-3-carbonyl]-N-(oxan-2-yl)piperidine-4-carboxamide] | > 1000
23 | O=C(NCCN1CCCC1)C1CCN(C(=O)c2cc(-c3ccncc3)[nH]n2)CC1 [1-[5-(pyridin-4-yl)-1H-pyrazole-3-carbonyl]-N-[2-(pyrrolidin-1-yl)ethyl]piperidine-4-carboxamide] | > 1000
24 | O=C(Nc1cccc(C(F)(F)F)c1)C1CCN(C(=O)c2cc(-c3ccncc3)[nH]n2)CC1 [1-[5-(pyridin-4-yl)-1H-pyrazole-3-carbonyl]-N-[3-(trifluoromethyl)phenyl]piperidine-4-carboxamide] | > 1000
25 | O=C(NCc1ccncc1)C1CCN(C(=O)c2cc(-c3ccncc3)[nH]n2)CC1 [1-[5-(pyridin-4-yl)-1H-pyrazole-3-carbonyl]-N-[(pyridin-4-yl)methyl]piperidine-4-carboxamide] | > 1000
26 | O=C(c1cc(-c2ccncc2)[nH]n1)N1CCC(C(=O)N2CCN(c3ccccc3)CC2)CC1 [1-phenyl-4-{1-[5-(pyridin-4-yl)-1H-pyrazole-3-carbonyl]piperidine-4-carbonyl}piperazine] | > 1000
27 | O=C(c1cc(-c2ccncc2)[nH]n1)N1CCC(C(=O)N2CCN(CC(F)(F)F)CC2)CC1 [1-{1-[5-(pyridin-4-yl)-1H-pyrazole-3-carbonyl]piperidine-4-carbonyl}-4-(2,2,2-trifluoroethyl)piperazine] | > 1000
28 | O=C(c1cc(-c2ccncc2)[nH]n1)N1CCC(C(=O)N2CCC23COC3)CC1 [1-{1-[5-(pyridin-4-yl)-1H-pyrazole-3-carbonyl]piperidine-4-carbonyl}-6-oxa-1-azaspiro[3.3]heptane] | > 1000
29 | CC1CCC(NC(=O)C2CCN(C(=O)c3cc(-c4ccnc(OC(F)F)c4)[nH]n3)CC2)CC1 (stereo not drawn) [1-{5-[2-(difluoromethoxy)pyridin-4-yl]-1H-pyrazole-3-carbonyl}-N-(4-methylcyclohexyl)piperidine-4-carboxamide] | > 1000
30 | CC1CCC(NC(=O)C2CCN(C(=O)c3cc(-c4ccnc(N(C)C)c4)[nH]n3)CC2)CC1 (stereo not drawn) [1-{5-[2-(dimethylamino)pyridin-4-yl]-1H-pyrazole-3-carbonyl}-N-(4-methylcyclohexyl)piperidine-4-carboxamide] | > 1000
31 | CNc1cc(-c2cc(C(=O)N3CCC(C(=O)NC4CCC(C)CC4)CC3)n[nH]2)ccn1 (stereo not drawn) [1-{5-[2-(methylamino)pyridin-4-yl]-1H-pyrazole-3-carbonyl}-N-(4-methylcyclohexyl)piperidine-4-carboxamide] | > 1000
32 | O=C(O)COc1cc(NC(=O)C2CCN(C(=O)c3cc(-c4ccncc4)[nH]n3)CC2)ccc1Cl [2-(2-chloro-5-{1-[5-(pyridin-4-yl)-1H-pyrazole-3-carbonyl]piperidine-4-amido}phenoxy)acetic acid] | > 1000
33 | COc1cc(-c2cc(C(=O)N3CCC4(C(=O)NCc5cccc(Cl)c5)CC34)n[nH]2)c(Cl)cn1 (stereo not drawn) [2-[5-(5-chloro-2-methoxypyridin-4-yl)-1H-pyrazole-3-carbonyl]-N-[(3-chlorophenyl)methyl]-2-azabicyclo[3.1.0]hexane-5-carboxamide] | > 1000
